For one test, the system named is Drp1. In words: Phosphorylated Drp1 (Drp1 616p) at purified mitochondria, densitometry normalized to Cox IV. The class given is cell-based. The procedure:
To activate MAVS commercially available 5′-ppp-RNA was used at a concentration of 1 μg/ml, which activates RIG-I helicase. As an alternative GOx was used as previously described [Szeto, H. H., Br J Pharmacol, 2014. 171(8): p. 2029-50]. Mitochondria were purified by anti-Tom22 magnetic beads as previously described [Perl, A., et al., Int Rev Immunol, 2004. 23(3-4): p. 293-313]. Changes in the level of Drp1^616p at mitochondria were determined by densitometry, which was normalized to the level of Cox IV (FIG. 14A-B).

The subject of another test is MAVS. In words: MAVS oligomerization in purified MEF mitochondria, with or without SLE patient-derived MAVS oligomers. Set-up: species or system mouse. The procedure: MAVS antibody was covalently coupled to protein G magnetic beads (Life Technologies) using the bi-functional amine-reactive cross-linker disuccinimidyl suberate (DSS; Thermo Scientific). To avoid a sample contamination with proteins or protein complexes that nonspecifically bind to protein G, plasma samples were pre-incubated with protein G magnetic beads without the cross-linked MAVS antibody. SLE patient plasma were incubated for 6 hours, after which the magnetic beads were loaded onto a column in a magnetic field and extensively washed. After the beads were eluted, MAVS-oligomers were released from MAVS-antibody by way of increasing ionic strength buffer, lower pH and gel filtration. Functionally intact mitochondria from cultured cells were isolated as described earlier (S. Schmitt et al., (2013) Analytical biochemistry 443, 66-74). This method comprises a mechanical cell rupture, followed by a precipitation of mitochondria from cell lysates using magnetically labeled anti-TOM22 (Miltenyi Biotec) antibody. […] The reaction mixtures were centrifuged at 10,000×g for 10 min, and the precipitates then analyzed using SDD-AGE.

Turning to `COC1=C(OC)C(=O)C(CCCCCCCCCC[P+](c2ccccc2)(c2ccccc2)c2ccccc2)=C(C)C1=O.CS(=O)(=O)[O-]` [MitoQ, [10-(4,5-Dimethoxy-2-methyl-3,6-dioxo-1,4-cyclohexadien-1-yl)decyl](triphenyl)phosphonium methanesulfonate], in the test on Drp1 (same cells pre-treated with MitoQ, versus 5′-ppp-RNA or GOx alone (FIG. 14A-B)), the “level of phosphorylated Drp1 at mitochondria with MitoQ pre-treatment” value is reported as “higher levels”. Besides, the “MAVS oligomerization induced by SLE plasma MAVS oligomers in isolated mitochondria” value in the test with MAVS (mitochondria pretreated with MitoQ (FIG. 6C, lane 4)) is recorded as “significantly decreased”.
As to glucose oxidase [GOx], the “level of phosphorylated Drp1 at mitochondria after MAVS activation” value in the test on Drp1 (5′-ppp-RNA 1 μg/ml or GOx (FIG. 14A-B)) is “lower levels of phosphorylated Drp1 at mitochondria”. Besides, the “induction of MAVS oligomerization in purified mitochondria” value in the test on MAVS (GOx treatment, positive control (FIG. 6C, lane 2)) is recorded as “induced MAVS oligomerization”.

Source of the values: patent publication US10967047B2, “Mitochondrial antiviral-signaling (MAVS) polypeptides and detection and use thereof” (University of Vermont and State Agricultural College, priority 2016, dated 2021).
